Laboratory results taken from patent US8785457B2 (Cellzome Limited, priority 2009, dated 2014).

Tests used:
Format in all cases: binding
PI3Kalpha (PI3Ka) = target: T1, PI3Kalpha (PI3Ka) (Homo sapiens, UniProt P42336); test: kinobeads assay, PI3Kalpha; settings: kinobeads assay, Table 6; for IC50: read-out: Inhibition values (IC50) PI3Ka
T1 construct: endogenous in cells; host or cells: cell lysate
In short: (§1)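 Competitive binding in cell lysate: test compounds at various concentrations compete with beads carrying an immobilized phenylmorpholin-chromen ligand. Bead-captured kinases are eluted and quantified by multiplexed immunodetection. IC50 values come from dose-response curves for each kinase.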

[1] = target: T2, DNA-dependent protein kinase (DNA-PK) (Homo sapiens, UniProt P78527); test: kinobeads assay, DNA-PK; settings: kinobeads assay, Table 6; read-out: Inhibition values (IC50) DNAPK
T2 construct: endogenous in cells; host or cells: Jurkat, clone E6-1 (ATCC TIB-152) cell lysate
In short: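 Competitive binding in Jurkat cell lysate (5 mg/mL protein) against beads carrying an immobilized phenylmorpholin-chromen ligand, in DP buffer pH 7.4 with NP40, DTT and NaF. Bead-bound kinases were eluted and quantified by antibody dot blot with infrared detection, and IC50 was taken from dose-response curves of a 1:3 dilution series.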

PI3 Kbeta (PI3 Kb) = target: T3, PI3 Kbeta (PI3 Kb) (Homo sapiens, UniProt P42338); test: kinobeads assay, PI3Kbeta; settings: kinobeads assay, Table 6; read-out: Inhibition values (IC50) PI3Kb
T3 construct: endogenous in cells; host or cells: cell lysate
In short: as §1

T2 sequence (P78527 whole entry): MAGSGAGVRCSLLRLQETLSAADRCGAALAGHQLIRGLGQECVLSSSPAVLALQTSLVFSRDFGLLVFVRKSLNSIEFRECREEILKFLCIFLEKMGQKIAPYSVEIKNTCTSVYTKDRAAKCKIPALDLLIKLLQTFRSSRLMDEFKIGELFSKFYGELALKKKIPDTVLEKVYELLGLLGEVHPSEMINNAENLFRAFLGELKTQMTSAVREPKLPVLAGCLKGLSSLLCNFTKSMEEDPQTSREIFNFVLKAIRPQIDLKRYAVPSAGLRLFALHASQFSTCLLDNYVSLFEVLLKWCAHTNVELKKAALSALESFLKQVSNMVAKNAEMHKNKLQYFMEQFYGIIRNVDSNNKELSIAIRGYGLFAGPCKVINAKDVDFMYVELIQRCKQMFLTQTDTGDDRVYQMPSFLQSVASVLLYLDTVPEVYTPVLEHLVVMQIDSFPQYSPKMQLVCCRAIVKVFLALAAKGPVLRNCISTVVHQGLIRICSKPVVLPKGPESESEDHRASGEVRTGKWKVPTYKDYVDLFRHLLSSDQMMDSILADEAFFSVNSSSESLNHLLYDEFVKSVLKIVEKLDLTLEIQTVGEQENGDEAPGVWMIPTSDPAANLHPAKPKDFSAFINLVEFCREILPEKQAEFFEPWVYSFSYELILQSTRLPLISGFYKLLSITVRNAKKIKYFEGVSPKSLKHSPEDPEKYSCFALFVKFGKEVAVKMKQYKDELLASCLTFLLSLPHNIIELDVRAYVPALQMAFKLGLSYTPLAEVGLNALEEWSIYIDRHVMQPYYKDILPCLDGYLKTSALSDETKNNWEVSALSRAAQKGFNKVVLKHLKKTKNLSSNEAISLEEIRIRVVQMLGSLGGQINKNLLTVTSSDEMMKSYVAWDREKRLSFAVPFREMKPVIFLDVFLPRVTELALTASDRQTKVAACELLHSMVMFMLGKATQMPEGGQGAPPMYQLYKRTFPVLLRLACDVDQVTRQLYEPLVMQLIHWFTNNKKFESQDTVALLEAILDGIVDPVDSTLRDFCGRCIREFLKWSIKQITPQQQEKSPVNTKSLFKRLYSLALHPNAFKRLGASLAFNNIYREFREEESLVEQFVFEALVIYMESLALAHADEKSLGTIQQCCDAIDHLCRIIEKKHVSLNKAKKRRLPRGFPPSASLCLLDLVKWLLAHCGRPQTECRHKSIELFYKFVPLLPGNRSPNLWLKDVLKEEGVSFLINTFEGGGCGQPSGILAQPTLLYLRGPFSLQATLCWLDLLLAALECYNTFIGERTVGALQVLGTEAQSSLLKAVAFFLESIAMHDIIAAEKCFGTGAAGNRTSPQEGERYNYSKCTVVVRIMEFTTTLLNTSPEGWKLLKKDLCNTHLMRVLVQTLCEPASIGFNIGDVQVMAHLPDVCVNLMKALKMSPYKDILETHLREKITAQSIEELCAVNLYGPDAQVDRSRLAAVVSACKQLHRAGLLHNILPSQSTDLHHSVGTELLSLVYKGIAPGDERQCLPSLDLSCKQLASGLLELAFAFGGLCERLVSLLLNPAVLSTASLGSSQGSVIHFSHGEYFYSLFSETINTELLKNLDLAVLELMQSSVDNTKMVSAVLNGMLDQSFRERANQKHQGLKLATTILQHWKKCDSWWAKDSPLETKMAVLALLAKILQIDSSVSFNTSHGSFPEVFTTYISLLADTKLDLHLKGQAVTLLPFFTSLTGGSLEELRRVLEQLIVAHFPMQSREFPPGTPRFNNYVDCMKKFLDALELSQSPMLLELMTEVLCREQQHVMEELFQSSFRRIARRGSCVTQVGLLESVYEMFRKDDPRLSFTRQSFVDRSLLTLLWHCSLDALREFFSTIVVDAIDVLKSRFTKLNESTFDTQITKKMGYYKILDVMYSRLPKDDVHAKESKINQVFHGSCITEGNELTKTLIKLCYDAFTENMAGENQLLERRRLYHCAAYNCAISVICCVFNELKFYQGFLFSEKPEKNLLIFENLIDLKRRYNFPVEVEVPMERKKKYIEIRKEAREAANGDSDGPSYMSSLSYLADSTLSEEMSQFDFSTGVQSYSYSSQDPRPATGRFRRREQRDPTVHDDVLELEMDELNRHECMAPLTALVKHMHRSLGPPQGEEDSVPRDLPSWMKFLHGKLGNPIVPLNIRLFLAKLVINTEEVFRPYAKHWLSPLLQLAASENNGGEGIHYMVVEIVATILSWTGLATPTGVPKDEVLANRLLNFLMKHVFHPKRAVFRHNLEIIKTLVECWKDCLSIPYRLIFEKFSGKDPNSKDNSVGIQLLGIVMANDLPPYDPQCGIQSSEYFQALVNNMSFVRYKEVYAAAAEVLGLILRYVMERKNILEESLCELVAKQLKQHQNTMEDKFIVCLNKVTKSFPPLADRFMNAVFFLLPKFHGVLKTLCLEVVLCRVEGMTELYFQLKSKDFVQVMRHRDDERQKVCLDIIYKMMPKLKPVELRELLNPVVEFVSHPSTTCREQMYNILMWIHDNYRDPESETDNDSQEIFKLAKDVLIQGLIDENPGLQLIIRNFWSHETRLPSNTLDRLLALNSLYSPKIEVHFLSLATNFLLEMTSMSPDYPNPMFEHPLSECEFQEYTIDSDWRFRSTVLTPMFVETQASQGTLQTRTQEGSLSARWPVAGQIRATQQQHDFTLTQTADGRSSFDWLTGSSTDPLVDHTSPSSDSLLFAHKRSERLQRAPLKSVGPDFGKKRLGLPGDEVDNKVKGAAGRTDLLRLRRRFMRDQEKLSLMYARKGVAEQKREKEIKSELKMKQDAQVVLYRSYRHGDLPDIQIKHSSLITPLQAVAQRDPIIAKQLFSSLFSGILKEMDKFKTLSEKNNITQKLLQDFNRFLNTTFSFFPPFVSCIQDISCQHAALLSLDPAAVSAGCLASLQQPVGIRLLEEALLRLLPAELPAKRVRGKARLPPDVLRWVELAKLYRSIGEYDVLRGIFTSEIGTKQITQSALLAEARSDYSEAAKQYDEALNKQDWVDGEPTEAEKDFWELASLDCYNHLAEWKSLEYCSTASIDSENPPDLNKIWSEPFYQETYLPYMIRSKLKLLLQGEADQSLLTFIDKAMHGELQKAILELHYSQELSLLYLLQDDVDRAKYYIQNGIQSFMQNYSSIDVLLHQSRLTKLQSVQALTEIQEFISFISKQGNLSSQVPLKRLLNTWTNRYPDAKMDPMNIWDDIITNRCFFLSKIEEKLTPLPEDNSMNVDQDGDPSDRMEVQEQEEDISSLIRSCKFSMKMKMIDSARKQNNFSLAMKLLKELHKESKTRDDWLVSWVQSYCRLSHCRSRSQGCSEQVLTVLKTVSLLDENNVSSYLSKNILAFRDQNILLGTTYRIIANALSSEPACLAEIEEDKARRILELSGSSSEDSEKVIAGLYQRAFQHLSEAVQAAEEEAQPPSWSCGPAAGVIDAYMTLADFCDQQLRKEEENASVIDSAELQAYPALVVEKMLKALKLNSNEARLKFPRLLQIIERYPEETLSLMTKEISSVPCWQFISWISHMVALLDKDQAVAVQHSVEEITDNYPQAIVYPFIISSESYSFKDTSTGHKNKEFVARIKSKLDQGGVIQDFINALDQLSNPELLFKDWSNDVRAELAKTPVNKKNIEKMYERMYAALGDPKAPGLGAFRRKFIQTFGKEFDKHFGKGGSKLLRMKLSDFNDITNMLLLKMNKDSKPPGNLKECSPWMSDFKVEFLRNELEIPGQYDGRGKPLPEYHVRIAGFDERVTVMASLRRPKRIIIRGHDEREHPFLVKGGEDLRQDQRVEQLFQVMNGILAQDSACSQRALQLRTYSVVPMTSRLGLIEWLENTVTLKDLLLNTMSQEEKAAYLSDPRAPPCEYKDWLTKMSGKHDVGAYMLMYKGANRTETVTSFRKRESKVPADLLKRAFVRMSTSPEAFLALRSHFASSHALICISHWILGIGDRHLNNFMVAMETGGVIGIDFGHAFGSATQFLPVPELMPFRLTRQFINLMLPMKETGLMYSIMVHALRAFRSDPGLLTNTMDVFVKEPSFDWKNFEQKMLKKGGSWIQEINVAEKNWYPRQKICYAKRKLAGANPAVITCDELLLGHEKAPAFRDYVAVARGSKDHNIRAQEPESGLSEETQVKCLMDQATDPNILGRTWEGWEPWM

Row | SMILES | IC50 (PI3Kalpha (PI3Ka)) | IC50 [1] | IC50 (PI3 Kbeta (PI3 Kb)) | Inhibition values (IC50) PI3Ka (PI3Kalpha (PI3Ka))
1 | C[C@H]1COCCN1c1nc(-c2ccc(NC(N)=O)cc2)nc2c1CN(C)C2 [Example 71, (S)-1-(4-(6-methyl-4-(3-methylmorpholino)-6,7-dihydro-5H-pyrrolo[3,4-d]pyrimidin-2-yl)phenyl)urea] | 1 to 10 µM | > 10 µM | 1 to 10 µM | 
2 | CCNC(=O)Nc1ccc(-c2nc3c(c(N4CCOCC4)n2)CCN(C(=O)C(C)(C)C)C3)cc1 [Example 98, 1-ethyl-3-(4-(4-morpholino-7-pivaloyl-5,6,7,8-tetrahydropyrido[3,4-d]pyrimidin-2-yl)phenyl)urea] | 1 to 10 µM | > 10 µM | > 10 µM | 
3 | CCNC(=O)Nc1ccc(-c2nc3c(c(N4CCOCC4)n2)CCN(C)C3)cc1 [Example 93, 1-ethyl-3-(4-(7-methyl-4-morpholino-5,6,7,8-tetrahydropyrido[3,4-d]pyrimidin-2-yl)phenyl)urea] |  | > 10 µM | > 10 µM | D (D >10 μM)
4 | CCOC(=O)N1Cc2nc(-c3ccc(NC(=O)Nc4ccncc4)cc3)nc(N3CCOC[C@@H]3C)c2C1 [Example 121, (S)-ethyl 4-(3-methylmorpholino)-2-(4-(3-(pyridin-4-yl)ureido)phenyl)-5H-pyrrolo[3,4-d]pyrimidine-6(7H)-carboxylate] |  | > 10 µM | > 10 µM | D (D >10 μM)
5 | C[C@H]1COCCN1c1nc(-c2ccc(NC(=O)Nc3cccc(O)n3)cc2)nc2c1CN(C)C2 [Example 80, (S)-1-(6-hydroxypyridin-2-yl)-3-(4-(6-methyl-4-(3-methylmorpholino)-6,7-dihydro-5H-pyrrolo[3,4-d]pyrimidin-2-yl)phenyl)urea] | 1 to 10 µM | > 10 µM | 1 to 10 µM | 
6 | CCNC(=O)Nc1ccc(-c2nc3c(c(N4CCOC[C@@H]4C)n2)CN(CC(F)(F)F)C3)cc1 [Example 68, (S)-1-ethyl-3-(4-(4-(3-methylmorpholino)-6-(2,2,2-trifluoroethyl)-6,7-dihydro-5H-pyrrolo[3,4-d]pyrimidin-2-yl)phenyl)urea] |  | > 10 µM | > 10 µM | D (D >10 μM)
7 | CCNC(=O)Nc1ccc(-c2nc3c(c(N4CCOCC4)n2)CCN(C(=O)NCC)C3)cc1 [Example 94, N-ethyl-2-(4-(3-ethylureido)phenyl)-4-morpholino-5,6-dihydropyrido[3,4-d]pyrimidine-7(8H)-carboxamide] | 1 to 10 µM | > 10 µM | > 10 µM | 
8 | CCNC(=O)Nc1ccc(-c2nc3c(c(N4CCOCC4)n2)CN(C(=O)OCC)C3)cc1 [Example 70, Ethyl 2-(4-(3-ethylureido)phenyl)-4-morpholino-5H-pyrrolo[3,4-d]pyrimidine-6(7H)-carboxylate] |  | 1 to 10 µM | > 10 µM | D (D >10 μM)
9 | CCNC(=O)Nc1ccc(-c2nc3c(c(N4CCOC[C@@H]4C)n2)CN(CC(C)(C)C)C3)cc1 [Example 67, (S)-1-ethyl-3-(4-(4-(3-methylmorpholino)-6-neopentyl-6,7-dihydro-5H-pyrrolo[3,4-d]pyrimidin-2-yl)phenyl)urea] |  | > 10 µM | > 10 µM | D (D >10 μM)

Now from value to molecule:

Row | IC50 (PI3Kalpha (PI3Ka)) | IC50 [1] | IC50 (PI3 Kbeta (PI3 Kb)) | Inhibition values (IC50) PI3Ka (PI3Kalpha (PI3Ka)) | SMILES
10 |  | > 10 µM | > 10 µM | D (D >10 μM) | COC(=O)N1CCc2c(nc(-c3ccc(NC(=O)NC4CC4)cc3)nc2N2CCOC[C@@H]2C)C1 [Example 83, (S)-methyl 2-(4-(3-cyclopropylureido)phenyl)-4-(3-methylmorpholino)-5,6-dihydropyrido[3,4-d]pyrimidine-7(8H)-carboxylate]
11 |  | > 10 µM | > 10 µM | D (D >10 μM) | CC(C)CN1Cc2nc(-c3ccc(NC(=O)NC4CC4)cc3)nc(N3CCOC[C@@H]3C)c2C1 [Example 65, (S)-1-cyclopropyl-3-(4-(6-isobutyl-4-(3-methylmorpholino)-6,7-dihydro-5H-pyrrolo[3,4-d]pyrimidin-2-yl)phenyl)urea]
12 |  | > 10 µM | > 10 µM | D (D >10 μM) | CCOC(=O)N1Cc2nc(-c3ccc(NC(=O)NC4CC4)cc3F)nc(N3CCOC[C@@H]3C)c2C1 [Example 131, (S)-ethyl 2-(4-(3-cyclopropylureido)-2-fluorophenyl)-4-(3-methylmorpholino)-5H-pyrrolo[3,4-d]pyrimidine-6(7H)-carboxylate]
13 |  | > 10 µM | > 10 µM | D (D >10 μM) | CCOC(=O)N1CCc2c(nc(-c3ccc(NC(=O)NC4CC4)cc3)nc2N2CCOC[C@@H]2C)C1 [Example 78, (S)-ethyl 2-(4-(3-cyclopropylureido)phenyl)-4-(3-methylmorpholino)-5,6-dihydropyrido[3,4-d]pyrimidine-7(8H)-carboxylate]
14 |  | > 10 µM | > 10 µM | D (D >10 μM) | CCNC(=O)Nc1ccc(-c2nc3c(c(N4CCOC[C@@H]4C)n2)CCN(C(=O)CO)C3)cc1 [Example 102, (S)-1-ethyl-3-(4-(7-(2-hydroxyacetyl)-4-(3-methylmorpholino)-5,6,7,8-tetrahydropyrido[3,4-d]pyrimidin-2-yl)phenyl)urea]
